In article PMC12195250, “Synthesis, Biological Evaluation, Molecular Dynamics, and QM-MM Calculation of Spiro-Acridine Derivatives Against Leishmaniasis” (Microorganisms, 2025):
Entries after “also recorded” stand apart in the source; their conditions may differ. Where two headings read alike, the source gives them in different places. Each block holds one compound with its values, some of them ahead of it.

Legend:
[1] = test system: L. infantum promastigotes (Strain MHOM/BR/70/BH46); test: Anti-promastigote effect, Neubauer chamber counting; format: cell-based, Leishmania infantum; conditions: 72 h incubation, read-out: L. infantum IC50PRO
Description: The promastigote cultures of L. infantum (Strain MHOM/BR/70/BH46) and L. amazonensis (Strain MHOM/BR/PH8) were kept in Schneider medium (Sigma-Aldrich, St. Louis, MO, USA) supplemented with 20% fetal bovine serum (FBS) and 1% streptomycin/penicillin in a B.O.D. incubator (J. Prolab, model JP. 100 LBCM/CPAM) at 26 °C. The promastigote strains were used in the exponential growth phase in all stages for experimental purposes.
The Neubauer chamber method was used to assess the inhibitory concentrations of the synthesized spiro-acridines capable of eliminating 50% of the promastigotes in cultures of L. amazonensis and L. infantum (IC50) strains. Promastigotes from both species were collected, counted, and diluted in Schneider’s medium (Sigma-Aldrich, St. Louis, MO, USA) supplemented with 20% fetal bovine serum (FBS) at a final concentration of 1 × 10^6 cells/mL. The evaluated promastigotes were then exposed to different concentrations of the tested compounds (10, 5, 2.5, 1.25, and 0.625 μg/mL). The positive control used the commercial drug Amphotericin B®, while the negative control consisted of promastigotes incubated in Schneider’s medium alone. After 72 h of incubation at 25 °C, culture growth was observed by counting the viable cells using a Neubauer chamber and calculated using the following Equation (1): No. Leishmania/mL = No. of cells counted × No. of Neubauer chamber(1) quadrants × the dilution used × 10^4 (Neubauer chamber correction factor)
The concentration parameter that inhibits 50% of parasite growth (IC50) was used to estimate the growth inhibition of the promastigote species of Leishmania sp. Thus, IC50 was determined by linear regression analysis with SPSS 8.0 software for Windows. Each test was performed in two independent experiments, with different cultures and in technical triplicate.

[2] = test system: macrophages infected with L. amazonensis; test: Reactive oxygen and nitrogen species (DCF-DA, DAF-FM diacetate); format: cell-based; conditions: 24 h; for expression of ROS: 2, 4 and 8 µg/mL, DCF-DA, compared to basal macrophage
Source text: The assay for the quantification of reactive oxygen species (ROS) and reactive nitrogen species (RNS) was executed using, respectively, the probe 2′,7′-dichlorodihydrofluorescein diacetate (DCF-DA) and 4-amino-5-methylamino-2′,7′-difluorofluorescein diacetate (DAF-FM diacetate), which produce 2–7-dichlorofluorescein (DCF) and 4-amino-5-methylamino-2′,7′-difluorofluorescein (DAF-FM) in the presence of the respective reactive species. Therefore, initially, macrophages were adhered to and infected with L. amazonensis in a plate, followed by the treatment with AMTAC-02 or ACMD-03 at concentrations of 2, 4, and 8 μg/mL. Subsequently, following a 24-h treatment period, the plates were incubated for 30 min with the DCF-DA probe diluted in saline (pH 7.2) and for 1 h with the DAF-FM diacetate probe diluted in saline (pH 7.2), respectively, in a humid chamber at 37 °C with 5% CO2, protected from light. The cells were washed twice with saline (pH 7.2) at room temperature and then resuspended in 200 µL of saline under the same conditions. The negative control comprised uninfected and untreated macrophages, while the positive control comprised untreated macrophages infected with L. amazonensis. Afterward, the fluorescence intensity in each sample was captured using the BD LRS II FORTESSA flow cytometer and the DIVA program version 7 (BD Bioscience). The mean fluorescence intensity (MFI) was then obtained by processing the data in FlowJoTM version 10.6.1. The experiment was performed in triplicate, and the results were calculated as the difference in MFI in each group.

J774A.1 macrophages = test: Cytotoxic effect in J774 macrophage cultures, MTT; format: cell-based; conditions: read-out: CC50 (50% cytotoxic concentration in J774 macrophage)
Description: J774A.1 macrophages (ATCC TIB-67) were kept cryopreserved in a Falcon tube containing 5 mL of DMEM (Dulbecco’s modified Eagle medium) culture medium (Gibco®), supplemented with 10% inactivated fetal bovine serum, 1% non-essential amino acids, and 1% gentamicin sulfate. The tube was centrifuged at 200 rpm for 10 min. Afterward, the supernatant was discarded, and the cells were resuspended in the culture medium and transferred to a culture bottle kept in an incubator at 37 °C with 5% CO2. The assays were carried out in triplicate using a 96-well plate to evaluate the cytotoxic effect of the selected spiro-acridine compounds on J774 macrophage cultures. The compounds were diluted and seeded at predetermined concentrations (32, 16, 8, 4, and 2 μg/mL), parallel to the distribution of 1.0 × 10^5 J774 macrophages per well. The plate was incubated for two hours in a 5% CO2 incubator at 37 °C. Only the cells were incubated in the negative control without the tested molecules. In contrast, the positive control was performed by incubating the macrophages with the commercial drug Amphotericin B®. Later, 10 μL of the MTT reagent was added per well, and the cultures were re-incubated for 4 h. Finally, 50 μL of DMSO was added to each well, and the absorbance was read on a SpectraMAX GeminiXS plate spectrophotometer (Molecular Devices LLC, San Jose, CA, USA) at a wavelength of 570 nm. […]

SMILES: N#CC1=CC2(c3ccccc3Nc3ccccc32)N(c2ccc(Cl)cc2)C1=O [ACMD-03, (E)1′-(4-chlorophenyl)-5′-oxo-1′, 5′-dihydro-10H-spiro{acridine-9,2′-pyrrole]-4′-carbonitrile]
IC50 [1]: 7.82 µM | expression of ROS [2]: significantly increased ROS expression | expression of RNS ([2]; DAF-FM diacetate, versus infected macrophage): intensified RNS expression; also recorded: significantly increased (* p < 0.05) RNS at a concentration of 2 µg/mL | CC50 (J774A.1 macrophages): 27.2 µM

IC50 ([1]; Leishmania infantum): 2.22 µM
SMILES: COc1ccc(/C=N/N2C(=O)C(C#N)=CC23c2ccccc2Nc2ccccc23)cc1 [AMTAC-02, (E)-1′-((4-methoxybenzylidene)amino)-5′-oxo-1′,5′-dihydro-10H-spiro[acridine-9,2′-pyrrole]-4′-carbonitrile]
expression of ROS [2]: significantly increased ROS expression
